Source: ChEMBL document CHEMBL5325491, “Small-Molecule Hydrophobic Tagging: A Promising Strategy of Druglike Technology for Targeted Protein Degradation” (J Med Chem, 2023)
One block for each compound: values may come before it. Starred links: 1 amine or outer side, 2 acyl side, 3 side chain; linkers in the order of their positions; H or OH if unused. Non-standard residues stand in square brackets, D forms with d. Residues, ends and D or L forms follow the SMILES beside them. *: point of attachment. Adamantane1carbonyl = O=C(C12CC3CC(CC(C3)C1)C2)*; X1 = O=C(C12CC3CC(CC(N[*:1])(C3)C1)C2)[*:2]

Columns and labels:
[1] = test system: NCI-H3122; experiment: Anticancer activity against human NCI-H3122 cells xenografted in mouse assessed as tumor growth inhibition at 20 mg/kg, po administered once every two days for 3 weeks relative to control; format: functional; details: NCI-H3122, 504 h, read-out: TGI
[2] = biological target: ALK tyrosine kinase receptor (Homo sapiens, UniProt Q9UM73); experiment: Induction of ALK (unknown origin) degradation
Sequence of ALK tyrosine kinase receptor (Q9UM73 whole entry): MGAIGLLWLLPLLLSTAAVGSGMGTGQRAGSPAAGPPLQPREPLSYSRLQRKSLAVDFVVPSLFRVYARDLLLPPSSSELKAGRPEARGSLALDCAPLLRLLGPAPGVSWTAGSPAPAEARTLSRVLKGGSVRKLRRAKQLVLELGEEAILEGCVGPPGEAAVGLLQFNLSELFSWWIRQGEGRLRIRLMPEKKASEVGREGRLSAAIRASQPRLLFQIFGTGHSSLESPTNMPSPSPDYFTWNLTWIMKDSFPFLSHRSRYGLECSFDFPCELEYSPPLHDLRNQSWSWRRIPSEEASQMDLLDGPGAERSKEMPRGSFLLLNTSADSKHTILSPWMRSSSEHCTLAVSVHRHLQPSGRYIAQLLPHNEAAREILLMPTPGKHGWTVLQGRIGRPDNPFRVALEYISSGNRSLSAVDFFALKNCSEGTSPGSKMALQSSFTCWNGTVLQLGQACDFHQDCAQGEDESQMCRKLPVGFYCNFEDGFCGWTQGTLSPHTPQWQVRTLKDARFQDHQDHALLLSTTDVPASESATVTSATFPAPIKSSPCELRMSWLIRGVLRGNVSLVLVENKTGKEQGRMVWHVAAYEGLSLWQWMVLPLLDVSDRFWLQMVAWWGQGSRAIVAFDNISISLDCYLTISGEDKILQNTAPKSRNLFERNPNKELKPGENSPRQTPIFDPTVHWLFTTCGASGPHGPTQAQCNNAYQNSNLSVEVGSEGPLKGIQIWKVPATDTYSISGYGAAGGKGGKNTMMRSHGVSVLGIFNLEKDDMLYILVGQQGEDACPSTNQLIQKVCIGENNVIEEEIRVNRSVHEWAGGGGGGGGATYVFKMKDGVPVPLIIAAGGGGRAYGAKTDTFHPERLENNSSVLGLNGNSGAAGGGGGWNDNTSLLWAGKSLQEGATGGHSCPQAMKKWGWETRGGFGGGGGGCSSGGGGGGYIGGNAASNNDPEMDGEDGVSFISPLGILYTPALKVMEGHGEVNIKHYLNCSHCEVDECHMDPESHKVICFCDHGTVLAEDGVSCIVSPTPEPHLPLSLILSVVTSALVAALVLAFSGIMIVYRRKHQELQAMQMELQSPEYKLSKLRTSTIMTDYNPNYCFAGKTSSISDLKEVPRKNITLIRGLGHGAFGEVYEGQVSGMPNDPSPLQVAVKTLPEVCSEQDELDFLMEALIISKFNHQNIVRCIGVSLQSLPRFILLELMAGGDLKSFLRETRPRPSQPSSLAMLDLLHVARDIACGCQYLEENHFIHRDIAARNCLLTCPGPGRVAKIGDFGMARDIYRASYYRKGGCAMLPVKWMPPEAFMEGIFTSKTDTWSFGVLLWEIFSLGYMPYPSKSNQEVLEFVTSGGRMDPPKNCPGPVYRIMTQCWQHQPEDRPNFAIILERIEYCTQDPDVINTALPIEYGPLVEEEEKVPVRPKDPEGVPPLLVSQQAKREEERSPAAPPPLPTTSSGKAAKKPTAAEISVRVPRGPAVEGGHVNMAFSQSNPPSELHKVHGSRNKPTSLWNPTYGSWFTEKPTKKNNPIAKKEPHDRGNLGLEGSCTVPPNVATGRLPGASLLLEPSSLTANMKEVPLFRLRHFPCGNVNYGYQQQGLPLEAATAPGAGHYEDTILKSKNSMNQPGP

[3] = biological target: T1, Glutathione S-transferase A1 (Homo sapiens) (UniProt P08263); experiment: Induction of GSTAlpha1 degradation in […] cells at 40 uM measured after 4 hrs; format: cell-based
T1 sequence (whole entry): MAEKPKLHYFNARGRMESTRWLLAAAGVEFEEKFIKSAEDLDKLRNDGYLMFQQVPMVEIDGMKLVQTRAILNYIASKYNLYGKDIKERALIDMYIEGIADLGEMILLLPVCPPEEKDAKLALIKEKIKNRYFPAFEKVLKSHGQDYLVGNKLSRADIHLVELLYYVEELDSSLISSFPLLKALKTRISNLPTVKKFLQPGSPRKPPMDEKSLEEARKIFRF

[4] = biological target: T2, Dihydrofolate reductase (Escherichia coli) (UniProt P0ABQ4); experiment: Induction of Escherichia coli DHFR degradation in […] cells at 80 uM measured after 4 hrs; format: cell-based
T2 sequence (whole entry): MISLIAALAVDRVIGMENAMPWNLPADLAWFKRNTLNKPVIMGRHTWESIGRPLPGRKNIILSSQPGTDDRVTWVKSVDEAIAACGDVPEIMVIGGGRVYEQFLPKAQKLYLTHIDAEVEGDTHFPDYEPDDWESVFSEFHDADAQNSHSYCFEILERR

[5] = test system: KARPAS-422; experiment: Anticancer activity against EZH2 dependent human KARPAS-422 cells assessed as cell growth inhibition by MTT assay; format: functional
[6] = test system: HCC1187; experiment: Anticancer activity against EZH2 dependent human HCC1187 cells assessed as cell growth inhibition by MTT assay; format: functional
[7] = test system: HCC70; experiment: Anticancer activity against EZH2 dependent human HCC70 cells assessed as cell growth inhibition by MTT assay; format: functional
[8] = test system: SU-DHL-8; experiment: Anticancer activity against EZH2 dependent human SU-DHL-8 cells assessed as cell growth inhibition by MTT assay; format: functional
[9] = test system: BT-549; experiment: Anticancer activity against EZH2 dependent human BT-549 cells assessed as cell growth inhibition by MTT assay; format: functional
[10] = test system: HCC1954; experiment: Anticancer activity against EZH2 dependent human HCC1954 cells assessed as cell growth inhibition by MTT assay; format: functional
[11] = test system: MCF7; experiment: Anticancer activity against EZH2 dependent human MCF7 cells assessed as cell growth inhibition by MTT assay; format: functional
[12] = biological target: Microtubule-associated protein tau (Mus musculus) (UniProt P10637); experiment: Induction of tau degradation in mouse N2a cells at 150 uM measured after 24 hrs by Western blot analysis relative to control; format: cell-based
Sequence of Microtubule-associated protein tau (Mus musculus) (P10637 whole entry): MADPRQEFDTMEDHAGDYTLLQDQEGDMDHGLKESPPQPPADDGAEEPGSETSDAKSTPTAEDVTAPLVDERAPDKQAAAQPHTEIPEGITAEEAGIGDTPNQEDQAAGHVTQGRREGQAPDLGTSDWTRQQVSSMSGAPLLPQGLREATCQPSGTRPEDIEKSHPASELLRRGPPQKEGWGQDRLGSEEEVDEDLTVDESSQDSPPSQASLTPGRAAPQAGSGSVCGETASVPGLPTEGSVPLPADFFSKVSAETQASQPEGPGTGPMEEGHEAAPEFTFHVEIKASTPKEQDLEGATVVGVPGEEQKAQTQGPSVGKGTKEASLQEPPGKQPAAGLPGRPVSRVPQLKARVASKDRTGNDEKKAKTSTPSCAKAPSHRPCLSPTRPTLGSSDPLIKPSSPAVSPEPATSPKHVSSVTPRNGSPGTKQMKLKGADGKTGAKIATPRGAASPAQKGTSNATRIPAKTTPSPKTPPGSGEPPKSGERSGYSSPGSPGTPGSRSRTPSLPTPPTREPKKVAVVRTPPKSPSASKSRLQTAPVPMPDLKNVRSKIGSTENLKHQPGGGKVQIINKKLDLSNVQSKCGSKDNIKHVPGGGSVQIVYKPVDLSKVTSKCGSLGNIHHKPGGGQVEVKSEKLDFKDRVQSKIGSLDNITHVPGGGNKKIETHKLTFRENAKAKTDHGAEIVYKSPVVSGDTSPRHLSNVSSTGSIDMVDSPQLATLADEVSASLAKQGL

[13] = biological target: RAC-alpha serine/threonine-protein kinase (Homo sapiens, UniProt P31749); experiment: Induction of Akt1 (unknown origin) degradation
Sequence of RAC-alpha serine/threonine-protein kinase (P31749 whole entry): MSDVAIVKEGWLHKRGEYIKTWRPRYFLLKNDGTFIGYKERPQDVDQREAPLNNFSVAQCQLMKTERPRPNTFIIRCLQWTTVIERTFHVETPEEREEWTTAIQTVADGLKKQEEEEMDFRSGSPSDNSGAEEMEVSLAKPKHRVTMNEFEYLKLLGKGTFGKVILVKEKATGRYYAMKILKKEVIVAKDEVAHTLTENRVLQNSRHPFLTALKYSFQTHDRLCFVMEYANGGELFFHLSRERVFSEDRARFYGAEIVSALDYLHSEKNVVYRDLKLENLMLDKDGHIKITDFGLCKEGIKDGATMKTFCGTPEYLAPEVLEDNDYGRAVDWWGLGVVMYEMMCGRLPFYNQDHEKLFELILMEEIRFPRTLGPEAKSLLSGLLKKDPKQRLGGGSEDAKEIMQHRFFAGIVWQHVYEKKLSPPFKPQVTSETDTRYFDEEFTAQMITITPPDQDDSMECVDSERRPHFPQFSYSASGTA

[14] = biological target: RAC-gamma serine/threonine-protein kinase (Homo sapiens, UniProt Q9Y243); experiment: Induction of Akt3 (unknown origin) degradation
Sequence of RAC-gamma serine/threonine-protein kinase (Q9Y243 whole entry): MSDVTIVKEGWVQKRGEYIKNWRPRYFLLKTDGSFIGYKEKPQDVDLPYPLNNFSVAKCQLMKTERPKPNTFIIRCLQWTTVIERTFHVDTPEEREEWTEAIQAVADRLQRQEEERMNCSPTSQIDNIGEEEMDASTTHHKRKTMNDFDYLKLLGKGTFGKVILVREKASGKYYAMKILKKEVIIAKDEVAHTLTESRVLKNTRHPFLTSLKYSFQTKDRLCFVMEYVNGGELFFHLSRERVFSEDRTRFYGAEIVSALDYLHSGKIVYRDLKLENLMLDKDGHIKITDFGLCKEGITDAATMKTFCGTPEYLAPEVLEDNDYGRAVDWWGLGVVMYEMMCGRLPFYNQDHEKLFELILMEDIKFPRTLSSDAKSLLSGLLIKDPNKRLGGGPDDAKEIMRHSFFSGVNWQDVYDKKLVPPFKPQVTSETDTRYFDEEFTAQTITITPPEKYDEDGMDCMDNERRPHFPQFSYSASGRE

[15] = test system: PC-9; experiment: Anticancer activity against human PC-9 cells xenografted in NSG mouse assessed as tumor growth inhibition at 20 mg/kg, ip administered once every two days for 14 days relative to control; format: functional; details: PC-9, 336 h, time 14 day, read-out: TGI
[16] = Induction of Akt2 (unknown origin) degradation; parameters: species or system Homo sapiens
[17] = biological target: T1, Glutathione S-transferase A1 (Homo sapiens); experiment: Induction of GSTAlpha1 degradation in human HeLa cells at 80 uM measured after 4 hrs relative to control; format: cell-based
[18] = biological target: TAR DNA-binding protein 43 (Mus musculus) (UniProt Q921F2); experiment: Induction of TDP-43 degradation in mouse N2a cells at 100 uM measured after 24 hrs by Western blot analysis relative to control; format: cell-based
Sequence of TAR DNA-binding protein 43 (Mus musculus) (Q921F2 whole entry): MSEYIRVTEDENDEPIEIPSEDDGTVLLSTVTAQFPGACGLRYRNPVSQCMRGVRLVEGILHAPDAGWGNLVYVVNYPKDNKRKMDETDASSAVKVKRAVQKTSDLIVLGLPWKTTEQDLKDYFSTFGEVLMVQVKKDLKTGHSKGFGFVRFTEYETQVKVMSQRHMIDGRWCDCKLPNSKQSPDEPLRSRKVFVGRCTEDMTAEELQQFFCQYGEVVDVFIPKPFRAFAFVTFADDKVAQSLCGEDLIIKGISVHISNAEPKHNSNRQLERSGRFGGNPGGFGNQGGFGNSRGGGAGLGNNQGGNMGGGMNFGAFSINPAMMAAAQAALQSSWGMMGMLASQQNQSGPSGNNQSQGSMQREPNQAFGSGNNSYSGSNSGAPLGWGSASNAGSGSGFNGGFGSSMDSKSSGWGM

[19] = Antiproliferative activity against HER3 dependent human HCC827 Gefitinib-resistant 6 (GR6) cell assessed as cell viability by CellTiter-Glo Luminescent Assay; format: functional, cell-based
[20] = test system: OVCAR-8; experiment: Antiproliferative activity against HER3 dependent human OVCAR-8 cells assessed as cell viability by CellTiter-Glo Luminescent Assay; format: functional, cell-based
[21] = Antiproliferative activity against HER3 dependent human PC9 Gefitinib-resistant 4 (GR4) cell assessed as cell viability by CellTiter-Glo Luminescent Assay; format: functional, cell-based

Compound: CCc1cc2c(cc1N1CCN(CCCCC(=O)NCC3CC4C=CC3C4)CC1)C(C)(C)c1[nH]c3cc(C#N)ccc3c1C2=O (stereo not drawn)
inhibition in vivo at 20 mg/kg [1]: 58%
DC50 [2]: 134 nM

Compound: Cc1cc(C)c(CNC(=O)c2cc(-c3ccc(N4CCN(CCNC(=O)CC56CC7CC(CC(C7)C5)C6)CC4)nc3)cc3c2cnn3C(C)C)c(=O)[nH]1
GI50 [5]: 1100 nM
GI50 [6]: 1100 nM
GI50 [7]: 1100 nM
GI50 [8]: 1100 nM
GI50 [9]: 1100 nM
GI50 [10]: 1100 nM
GI50 [11]: 1100 nM

Compound: COc1cc(N2CCN(CCCCCCCCCCCCNC(=O)CC34CC5CC(CC(C5)C3)C4)CC2)ccc1Nc1ncc2c(C)cc(=O)n(-c3cccc(NC(=O)C4CC4)c3)c2n1
DC50 [13]: > 1000 nM
DC50 [14]: 13 nM
inhibition in vivo at 20 mg/kg [15]: 75%
DC50 [16]: > 1000 nM

Compound: C=C(CC)C(=O)c1ccc(OCC(=O)O)c(Cl)c1Cl
Activity [17]: 75%

Compound: Cc1cc(Nc2ncc(Cl)c(Nc3ccccc3S(=O)(=O)C(C)C)n2)c(OC(C)C)cc1C1CCN(CC(=O)NCC2CC3C=CC2C3)CC1 (stereo not drawn)
DC50 [2]: 314 nM

Compound: CC[C@H](C)[C@H](NC(=O)CNC(=O)[C@H](CCCCN)NC(=O)[C@@H](NC(=O)[C@@H](NC(=O)[C@H](CC(C)C)NC(=O)[C@H](CC(=O)O)NC(=O)[C@H](CCC(=O)O)NC(=O)[C@H](CO)NC(=O)CNC(=O)[C@H](CO)NC(=O)CNC(=O)[C@H](CCCCN)NC(=O)C12CC3CC(CC(NC(=O)C45CC6CC(CC(C6)C4)C5)(C3)C1)C2)[C@@H](C)CC)[C@@H](C)CC)C(=O)N[C@@H](CO)C(=O)N[C@H](C(=O)NCC(=O)N[C@@H](CCCNC(=N)N)C(=O)N[C@@H](CCCCN)C(=O)N[C@@H](CCCCN)C(=O)N[C@@H](CCCNC(=N)N)C(=O)N[C@@H](CCCNC(=N)N)C(=O)N[C@@H](CCC(N)=O)C(=O)N[C@@H](CCCNC(=N)N)C(=O)N[C@@H](CCCNC(=N)N)C(=O)N[C@@H](CCCNC(=N)N)C(N)=O)C(C)C (Adamantane1carbonyl-[X1]KGSGSEDLIIKGISVGRKKRRQRRR-NH2)
Activity [18]: 80%

The next lines start with results.

Activity [3]: 80%
Activity [4]: 60%
Compound: COc1cc(Cc2cnc(N)nc2N)cc(OC)c1OCC(=O)NCCCCCCNC(=O)[C@@H](CCCN/C(=N\C(=O)OC(C)(C)C)NC(=O)OC(C)(C)C)NC(=O)OC(C)(C)C

DC50 [2]: 89 nM
Compound: COc1cc(N2CCN(CC(=O)NCC3CC4C=CC3C4)CC2)ccc1Nc1ncc(Cl)c(Nc2ccccc2P(C)(C)=O)n1 (stereo not drawn)

Activity [12]: 88%
Compound: C[C@H](NC(=O)[C@H](CC(=O)O)NC(=O)[C@H](CCC(N)=O)NC(=O)[C@H](Cc1ccc(O)cc1)NC(=O)[C@H](CCC(N)=O)NC(=O)[C@H](CCC(N)=O)NC(=O)[C@H](Cc1ccc(O)cc1)NC(=O)C12CC3CC(CC(C3)C1)C2)C(=O)N[C@H](C(=O)N[C@@H](C)C(=O)N[C@@H](CC(=O)O)C(=O)N[C@@H](CCC(=O)O)C(=O)N[C@@H](CCC(N)=O)C(=O)NCC(=O)N[C@H](CCCNC(=N)N)C(=O)N[C@H](CCCNC(=N)N)C(=O)N[C@H](CCCNC(=N)N)C(=O)N[C@H](CCCNC(=N)N)C(=O)N[C@H](CCCNC(=N)N)C(=O)N[C@H](CCCNC(=N)N)C(=O)N[C@H](CCCNC(=N)N)C(=O)N[C@H](CCCNC(=N)N)C(N)=O)[C@@H](C)O

EC50 [20]: 800 nM
Compound: C=CC(=O)Nc1cc(-c2nn(C3CCN(CCNC(=O)[C@H](C)CCC45CC6CC(CC(C6)C4)C5)CC3)c3ncnc(N)c23)ccc1Oc1ccccc1
EC50 [19]: 800 nM
EC50 [21]: 800 nM
